# What was measured:
# [1] = target: T1, Human neuropeptide Y (NPY-Y1) (Homo sapiens, UniProt P25929); assay: Radioligand binding, human neuropeptide Y NPY-Y1 membranes, FlashPlate, [125I]-PYY; details: compound at 10 μM
# T1 construct: purchased Perkin Elmer Biosignal
# T1 sequence (P25929 1-384): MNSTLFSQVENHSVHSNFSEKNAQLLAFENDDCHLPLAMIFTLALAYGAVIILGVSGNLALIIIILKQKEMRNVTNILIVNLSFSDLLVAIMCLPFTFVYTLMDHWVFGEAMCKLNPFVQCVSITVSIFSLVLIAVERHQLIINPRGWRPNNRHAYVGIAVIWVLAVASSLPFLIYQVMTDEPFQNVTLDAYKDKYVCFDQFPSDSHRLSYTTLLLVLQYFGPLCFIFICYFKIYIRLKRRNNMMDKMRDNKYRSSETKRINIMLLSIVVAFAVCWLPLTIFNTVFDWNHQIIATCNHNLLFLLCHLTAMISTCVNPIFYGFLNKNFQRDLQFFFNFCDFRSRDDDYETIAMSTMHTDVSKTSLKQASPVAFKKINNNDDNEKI
# Summary of the method: (§1)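 Cloned human receptor membranes were coated onto FlashPlate wells and incubated with radioligand and compound (added from a 0.5 mM DMSO daughter plate) for 1 hour at room temperature in the dark. Scintillation counting gave percent inhibition, with DMSO defining total and reference ligand defining non-specific binding.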
# [2] = target: T2, Human Melanocortin (MC3) (Homo sapiens, UniProt P41968); assay: Radioligand binding, human melanocortin MC3 membranes, FlashPlate, [125I]-NDP-αMSH; details: compound at 10 μM; for A3 radioligand binding inhibition: human melanocortin MC3 membranes
# T2 construct: purchased Perkin Elmer Biosignal
# Summary of the method: as §1
# [3] = target: T3, Human κ-Opioid (KOP) (Homo sapiens, UniProt P41145); assay: Radioligand binding, human κ-opioid (KOP) membranes, filtration, [3H]-Diprenorphine; details: compound at 10 μM; for A2 radioligand binding inhibition: human κ-opioid (KOP) membranes
# T3 construct: purchased Perkin Elmer Biosignal
# Summary of the method: (§2)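 Percent inhibition of radioligand binding measured on recombinant human membranes: NK1 with [125I]-Substance P, KOP with [3H]-Diprenorphine. Incubation 1 h at room temperature, then harvest onto 0.3% PEI-soaked filters, cold Tris-HCl pH 7.4 washes and scintillation counting; non-specific binding from reference ligand wells.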
# [4] = target: T4, Human melanocortin (MC5) (Homo sapiens, UniProt P33032); assay: Radioligand binding, human melanocortin MC5 membranes, FlashPlate, [125I]-NDP-αMSH; details: compound at 10 μM; for A5 radioligand binding inhibition: human melanocortin MC5 membranes
# T4 construct: purchased Perkin Elmer Biosignal
# Summary of the method: as §1
# [5] = target: T5, Human opioid (ORL1) (Homo sapiens, UniProt P41146); assay: Radioligand binding, human opioid ORL1 membranes, FlashPlate, [125I]-Nociceptin; details: compound at 10 μM
# T5 construct: purchased Perkin Elmer Biosignal
# Summary of the method: as §1
# [6] = target: T6, Human μ-opioid (MOP) (Homo sapiens, UniProt P35372); assay: Radioligand binding, human μ-opioid (MOP) membranes, FlashPlate, [3H]-Naloxone; details: compound at 10 μM; for A7 radioligand binding inhibition: human μ-opioid (MOP) membranes
# T6 construct: purchased Perkin Elmer Biosignal
# Summary of the method: as §1
# [7] = target: T7, Mouse urotensin (mUR2) (Mus musculus, UniProt Q8VIH9); assay: Radioligand binding, mouse urotensin mUR2 membranes, FlashPlate, [125I]-Urotensin II; details: compound at 10 μM; for A11 radioligand binding inhibition: mouse urotensin mUR2 membranes
# T7 construct: purchased Perkin Elmer Biosignal
# T7 sequence (Q8VIH9 1-385): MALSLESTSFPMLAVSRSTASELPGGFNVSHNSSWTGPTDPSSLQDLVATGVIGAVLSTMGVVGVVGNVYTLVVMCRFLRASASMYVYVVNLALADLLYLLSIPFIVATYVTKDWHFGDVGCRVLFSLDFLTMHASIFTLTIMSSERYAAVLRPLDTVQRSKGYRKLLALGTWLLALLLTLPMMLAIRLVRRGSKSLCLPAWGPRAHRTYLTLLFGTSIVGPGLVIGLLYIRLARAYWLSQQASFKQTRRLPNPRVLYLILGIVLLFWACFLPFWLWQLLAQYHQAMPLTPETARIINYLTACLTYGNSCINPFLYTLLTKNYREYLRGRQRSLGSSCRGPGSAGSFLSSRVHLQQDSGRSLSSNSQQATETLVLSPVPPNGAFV
# Summary of the method: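 Cloned mouse urotensin (mUR2) receptor membranes from Perkin Elmer Biosignal were immobilized in FlashPlate microplates using a proprietary coating. Each well got 19.5 μl buffer, then 0.5 μl of DMSO, reference ligand, or compound. Adding 5 μl of [125I]-Urotensin II, diluted to 5× final concentration in binding buffer, started binding. Plates were sealed with TopSeal-A and incubated 1 hour at room temperature in the dark. Wells were counted for 30 seconds each on a TopCount after a 60-second delay, and percentage inhibition was calculated.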
# [8] = target: T8, Human neurokinin (NK1) (Homo sapiens, UniProt P25103); assay: Radioligand binding, human neurokinin NK1 membranes, filtration, [125I]-Substance P; details: compound at 10 μM; for A8 radioligand binding inhibition: human neurokinin NK1 membranes
# T8 construct: purchased Perkin Elmer Biosignal
# Summary of the method: as §2
# [9] = target: T9, Human δ-opioid (DOP) (Homo sapiens, UniProt P41143); assay: Radioligand binding, human δ-opioid (DOP) membranes, FlashPlate, [3H]-Bremazocine; details: compound at 10 μM; for A1 radioligand binding inhibition: human δ-opioid (DOP) membranes
# T9 construct: purchased Perkin Elmer Biosignal
# Summary of the method: as §1
# [10] = target: T10, Human Melanocortin (MC4) (Homo sapiens, UniProt P32245); assay: Radioligand binding, human melanocortin MC4 membranes, FlashPlate, [125I]-NDP-αMSH; details: compound at 10 μM; for A4 radioligand binding inhibition: human melanocortin MC4 membranes
# T10 construct: purchased Perkin Elmer Biosignal
# Summary of the method: as §1
# [11] = target: T11, Human melanin-concentrating hormone (MCH1) (Homo sapiens, UniProt Q99705); assay: Radioligand binding, human melanin-concentrating hormone MCH1 membranes, FlashPlate, [125I]-S36057; details: compound at 10 μM; for A6 radioligand binding inhibition: human MCH1 membranes; for A6: inhibition of radioligand binding, human melanin-concentrating hormone (MCH1): [125I]-S36057
# T11 construct: purchased Perkin Elmer Biosignal
# Summary of the method: as §1
# T9 sequence (P41143 whole entry): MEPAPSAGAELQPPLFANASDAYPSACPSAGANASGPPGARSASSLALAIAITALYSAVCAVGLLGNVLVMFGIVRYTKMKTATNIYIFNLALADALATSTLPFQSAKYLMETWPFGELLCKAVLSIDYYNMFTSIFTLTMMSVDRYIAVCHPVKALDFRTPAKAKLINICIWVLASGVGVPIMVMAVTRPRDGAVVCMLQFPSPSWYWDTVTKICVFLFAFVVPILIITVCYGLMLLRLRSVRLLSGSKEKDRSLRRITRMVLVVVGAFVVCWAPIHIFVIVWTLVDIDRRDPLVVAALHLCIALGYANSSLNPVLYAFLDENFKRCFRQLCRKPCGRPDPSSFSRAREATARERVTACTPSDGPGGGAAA
# T4 sequence (P33032 whole entry): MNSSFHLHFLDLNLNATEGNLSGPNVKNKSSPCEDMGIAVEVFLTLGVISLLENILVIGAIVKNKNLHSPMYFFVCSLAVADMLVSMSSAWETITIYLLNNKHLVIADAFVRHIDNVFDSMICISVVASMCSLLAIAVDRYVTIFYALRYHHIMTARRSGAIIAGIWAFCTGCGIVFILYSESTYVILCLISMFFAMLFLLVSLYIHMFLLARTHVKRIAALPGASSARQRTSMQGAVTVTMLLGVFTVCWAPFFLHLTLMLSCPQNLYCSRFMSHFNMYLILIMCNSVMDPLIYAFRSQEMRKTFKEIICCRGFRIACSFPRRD
# T10 sequence (P32245 whole entry): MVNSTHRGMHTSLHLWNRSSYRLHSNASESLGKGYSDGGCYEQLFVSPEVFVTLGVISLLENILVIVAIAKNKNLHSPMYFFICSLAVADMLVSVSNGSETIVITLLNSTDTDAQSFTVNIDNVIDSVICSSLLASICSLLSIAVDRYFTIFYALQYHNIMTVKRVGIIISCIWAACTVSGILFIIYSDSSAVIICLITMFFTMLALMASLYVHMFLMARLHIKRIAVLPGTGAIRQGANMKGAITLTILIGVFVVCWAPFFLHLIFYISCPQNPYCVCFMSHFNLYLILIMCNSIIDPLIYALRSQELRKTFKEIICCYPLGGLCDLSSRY
# T2 sequence (P41968 whole entry): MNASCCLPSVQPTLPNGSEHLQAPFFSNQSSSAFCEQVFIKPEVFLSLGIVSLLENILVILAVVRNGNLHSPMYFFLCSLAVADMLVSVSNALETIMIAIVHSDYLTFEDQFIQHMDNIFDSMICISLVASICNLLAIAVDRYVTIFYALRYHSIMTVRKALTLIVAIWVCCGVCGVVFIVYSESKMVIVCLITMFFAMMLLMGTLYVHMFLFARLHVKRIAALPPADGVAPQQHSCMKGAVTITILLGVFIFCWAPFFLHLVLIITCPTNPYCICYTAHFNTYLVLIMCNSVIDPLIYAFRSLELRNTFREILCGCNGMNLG
# T3 sequence (P41145 whole entry): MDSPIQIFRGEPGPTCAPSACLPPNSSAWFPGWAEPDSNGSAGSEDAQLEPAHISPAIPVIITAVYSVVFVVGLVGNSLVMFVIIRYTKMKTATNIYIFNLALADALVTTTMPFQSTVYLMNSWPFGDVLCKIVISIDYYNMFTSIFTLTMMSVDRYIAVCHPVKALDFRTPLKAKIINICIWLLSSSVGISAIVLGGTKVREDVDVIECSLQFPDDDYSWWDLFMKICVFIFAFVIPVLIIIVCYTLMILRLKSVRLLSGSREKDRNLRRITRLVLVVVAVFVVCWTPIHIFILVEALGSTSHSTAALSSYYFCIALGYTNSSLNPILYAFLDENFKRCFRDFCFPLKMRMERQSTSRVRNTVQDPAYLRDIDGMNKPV
# T5 sequence (P41146 whole entry): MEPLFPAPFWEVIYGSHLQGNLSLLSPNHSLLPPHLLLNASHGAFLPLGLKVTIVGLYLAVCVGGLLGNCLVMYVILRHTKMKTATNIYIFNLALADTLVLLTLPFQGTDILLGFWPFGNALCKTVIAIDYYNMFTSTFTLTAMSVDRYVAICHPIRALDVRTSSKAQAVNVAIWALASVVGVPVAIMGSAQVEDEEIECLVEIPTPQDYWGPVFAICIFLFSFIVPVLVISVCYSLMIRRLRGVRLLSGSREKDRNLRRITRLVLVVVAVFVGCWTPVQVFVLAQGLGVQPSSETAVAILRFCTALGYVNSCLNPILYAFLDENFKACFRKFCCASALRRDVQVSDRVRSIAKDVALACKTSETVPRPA
# T8 sequence (P25103 whole entry): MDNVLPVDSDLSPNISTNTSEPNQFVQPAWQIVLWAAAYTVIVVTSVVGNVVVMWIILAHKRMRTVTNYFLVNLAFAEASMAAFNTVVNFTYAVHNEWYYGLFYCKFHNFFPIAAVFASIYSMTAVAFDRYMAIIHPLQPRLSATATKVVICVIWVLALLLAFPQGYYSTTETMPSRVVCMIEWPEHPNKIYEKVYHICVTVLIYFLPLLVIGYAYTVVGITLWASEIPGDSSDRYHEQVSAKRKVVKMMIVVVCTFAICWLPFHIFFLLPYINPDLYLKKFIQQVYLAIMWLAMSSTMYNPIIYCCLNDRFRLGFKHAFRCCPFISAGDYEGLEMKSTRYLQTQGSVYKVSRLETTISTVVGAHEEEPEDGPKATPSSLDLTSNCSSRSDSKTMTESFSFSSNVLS
# T6 sequence (P35372 whole entry): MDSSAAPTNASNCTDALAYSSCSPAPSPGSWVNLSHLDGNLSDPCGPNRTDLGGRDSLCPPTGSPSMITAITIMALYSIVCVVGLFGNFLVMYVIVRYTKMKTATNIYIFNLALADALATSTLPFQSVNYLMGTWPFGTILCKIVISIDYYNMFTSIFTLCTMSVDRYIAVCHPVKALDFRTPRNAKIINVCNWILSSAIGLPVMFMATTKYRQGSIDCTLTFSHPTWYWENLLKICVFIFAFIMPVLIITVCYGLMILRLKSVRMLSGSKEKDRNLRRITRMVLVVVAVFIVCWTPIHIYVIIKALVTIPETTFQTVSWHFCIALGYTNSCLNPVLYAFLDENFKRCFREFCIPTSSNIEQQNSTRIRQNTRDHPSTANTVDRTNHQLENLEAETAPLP
# T11 sequence (Q99705 whole entry): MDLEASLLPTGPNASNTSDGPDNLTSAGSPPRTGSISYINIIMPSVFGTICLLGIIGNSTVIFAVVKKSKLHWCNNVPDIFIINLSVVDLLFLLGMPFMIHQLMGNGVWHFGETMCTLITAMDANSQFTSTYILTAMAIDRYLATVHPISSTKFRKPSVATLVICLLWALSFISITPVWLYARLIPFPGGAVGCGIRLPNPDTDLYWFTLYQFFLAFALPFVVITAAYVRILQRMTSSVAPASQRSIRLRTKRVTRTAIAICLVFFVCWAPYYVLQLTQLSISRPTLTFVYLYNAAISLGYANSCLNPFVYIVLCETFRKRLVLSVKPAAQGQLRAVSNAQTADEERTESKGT
Compound,A9 radioligand binding inhibition ([1]; human NPY-Y1 membranes),A3 radioligand binding inhibition [2],A2 radioligand binding inhibition [3],A5 radioligand binding inhibition [4],A10 radioligand binding inhibition ([5]; human ORL1 membranes),A7 radioligand binding inhibition [6],A11 radioligand binding inhibition [7],A8 radioligand binding inhibition [8],A1 radioligand binding inhibition [9],A4 radioligand binding inhibition [10],A6 radioligand binding inhibition [11],"A9: inhibition of radioligand binding, human neuropeptide Y (NPY-Y1) ([1]; [125I]-PYY)","A3: inhibition of radioligand binding, human melanocortin (MC3) ([2]; [125I]-NDP-αMSH)","A2: inhibition of radioligand binding, human κ-opioid (KOP) ([3]; [3H]-Diprenorphine)","A7: inhibition of radioligand binding, human μ-opioid (MOP) ([6]; [3H]-Naloxone)","A11: inhibition of radioligand binding, mouse urotensin (mUR2) ([7]; [125I]-Urotensin II)","A8: inhibition of radioligand binding, human neurokinin (NK1) ([8]; [125I]-Substance P)","A1: inhibition of radioligand binding, human δ-opioid (DOP) ([9]; [3H]-Bremazocine)","A4: inhibition of radioligand binding, human melanocortin (MC4) ([10]; [125I]-NDP-αMSH)","A6: inhibition of radioligand binding, human melanin-concentrating hormone (MCH1) [11]",further results
NCCC(=O)N[C@H]1C(OCc2ccc3ccccc3c2)O[C@H](COCc2ccccc2)[C@@H](O)[C@@H]1OCc1ccc2ccccc2c1 (stereo partly shown) [compound 444],–,–,–,–,–,–,–,–,–,–,–,–,–,–,–,–,–,–,–,–,"A9: inhibition of radioligand binding ([1]; [125I]-PYY, human NPY-Y1 membranes): − (“−” indicates less than 50% inhibition at 10 μM); A3: inhibition of radioligand binding ([2]; [125I]-NDP-αMSH, human MC3 membranes, 10 µM): − (“−” indicates less than 50% inhibition at 10 μM); A2: inhibition of radioligand binding ([3]; [3H]-Diprenorphine, human KOP membranes, 10 µM): − (“−” indicates less than 50% inhibition at 10 μM); A5: inhibition of radioligand binding ([4]; [125I]-NDP-αMSH, human MC5 membranes, 10 µM): − (“−” indicates less than 50% inhibition at 10 μM); A10: inhibition of radioligand binding ([5]; [125I]-Nociceptin, human ORL1 membranes, 10 µM): − (“−” indicates less than 50% inhibition at 10 μM); A7: inhibition of radioligand binding ([6]; [3H]-Naloxone, human MOP membranes, 10 µM): − (“−” indicates less than 50% inhibition at 10 μM); A11: inhibition of radioligand binding ([7]; [125I]-Urotensin II, mouse mUR2 membranes): − (“−” indicates less than 50% inhibition at 10 μM); A8: inhibition of radioligand binding ([8]; [125I]-Substance P, human NK1 membranes): + (“+” indicates greater than 50% inhibition at 10 μM); A1: inhibition of radioligand binding ([9]; [3H]-Bremazocine, human DOP membranes): − (“−” indicates less than 50% inhibition at 10 μM); A4: inhibition of radioligand binding ([10]; [125I]-NDP-αMSH, human MC4 membranes, 10 µM): − (“−” indicates less than 50% inhibition at 10 μM); A6: inhibition of radioligand binding ([11]; [125I]-S36057, human MCH1 membranes, 10 µM): − (“−” indicates less than 50% inhibition at 10 μM)"
CO[C@H]1[C@H](O)[C@@H](COCc2ccc(-c3ccccc3)cc2)OC(OCc2ccc(-c3ccccc3)cc2)[C@@H]1NC(=O)CCCN (stereo partly shown) [compound 53],− (“−” indicates less than 50% inhibition at 10 μM),− (“−” indicates less than 50% inhibition at 10 μM),− (“−” indicates less than 50% inhibition at 10 μM),− (“−” indicates less than 50% inhibition at 10 μM),− (“−” indicates less than 50% inhibition at 10 μM),− (“−” indicates less than 50% inhibition at 10 μM),− (“−” indicates less than 50% inhibition at 10 μM),− (“−” indicates less than 50% inhibition at 10 μM),− (“−” indicates less than 50% inhibition at 10 μM),− (“−” indicates less than 50% inhibition at 10 μM),+ (“+” indicates greater than 50% inhibition at 10 μM),–,–,–,–,–,–,–,–,–,–
"NCCCC(=O)NC1C(OCc2ccc(Cl)cc2)OC(COCc2ccccc2)C(O)C1OCc1ccccc1 (single isomer, unassigned) [compound 503]",–,–,–,–,–,–,–,–,–,–,–,− (“−” indicates less than 50% inhibition at 10 μM),− (“−” indicates less than 50% inhibition at 10 μM),− (“−” indicates less than 50% inhibition at 10 μM),− (“−” indicates less than 50% inhibition at 10 μM),− (“−” indicates less than 50% inhibition at 10 μM),+ (“+” indicates greater than 50% inhibition at 10 μM),− (“−” indicates less than 50% inhibition at 10 μM),− (“−” indicates less than 50% inhibition at 10 μM),− (“−” indicates less than 50% inhibition at 10 μM),"A5: inhibition of radioligand binding, human melanocortin (MC5) ([4]; [125I]-NDP-αMSH, 10 µM): + (“+” indicates greater than 50% inhibition at 10 μM); A10: inhibition of radioligand binding, human opioid (ORL1) ([5]; [125I]-Nociceptin, 10 µM): − (“−” indicates less than 50% inhibition at 10 μM)"
COC[C@H]1OC(OCc2ccc3ccccc3c2)[C@H](NC(=O)CCCN)[C@@H](OCc2ccccc2)[C@@H]1O (stereo partly shown) [compound 20],− (“−” indicates less than 50% inhibition at 10 μM),− (“−” indicates less than 50% inhibition at 10 μM),− (“−” indicates less than 50% inhibition at 10 μM),− (“−” indicates less than 50% inhibition at 10 μM),− (“−” indicates less than 50% inhibition at 10 μM),− (“−” indicates less than 50% inhibition at 10 μM),− (“−” indicates less than 50% inhibition at 10 μM),+ (“+” indicates greater than 50% inhibition at 10 μM),− (“−” indicates less than 50% inhibition at 10 μM),− (“−” indicates less than 50% inhibition at 10 μM),− (“−” indicates less than 50% inhibition at 10 μM),–,–,–,–,–,–,–,–,–,–
NCCC(=O)NC1C(OCc2ccccc2)OC(COCc2ccccc2)C(O)C1OCc1ccccc1 (stereo not shown) [compound 370],–,–,–,–,–,–,–,–,–,–,–,− (“−” indicates less than 50% inhibition at 10 μM),− (“−” indicates less than 50% inhibition at 10 μM),− (“−” indicates less than 50% inhibition at 10 μM),− (“−” indicates less than 50% inhibition at 10 μM),− (“−” indicates less than 50% inhibition at 10 μM),+ (“+” indicates greater than 50% inhibition at 10 μM),− (“−” indicates less than 50% inhibition at 10 μM),− (“−” indicates less than 50% inhibition at 10 μM),− (“−” indicates less than 50% inhibition at 10 μM),"A5: inhibition of radioligand binding, human melanocortin (MC5) ([4]; [125I]-NDP-αMSH): − (“−” indicates less than 50% inhibition at 10 μM); A10: inhibition of radioligand binding, human opioid (ORL1) ([5]; [125I]-Nociceptin): − (“−” indicates less than 50% inhibition at 10 μM)"

# Reference: patent publication US20080009418A1, “Selective Inhibitors” (Alchemia LTD., priority 2004, published 2008)
